In patent publication US9073902B2 (BioEnergenix, LLC, priority 2011, dated 2015):

Target: T1, hPASK (Homo sapiens, UniProt Q96RG2)
T1 construct: IC50 Kinase Domain; purchased Invitrogen
Experiment: PAS Kinase FRET Assay (Biochemical Assay for hPASK Activity)
Conditions: TR-FRET (665 nm/615 nm), 2 hours at 25° C.; read-out: IC50 Kinase Domain
From the text: Biochemical Assay for hPASK Activity
The aim of the FRET assay is to determine the inhibition potential of test compounds on targeted kinase. This assay platform provides a homogenous screening method for measuring kinase activity by quantitating the amount of phospho-substrate in solution following a kinase reaction.
In the presence of kinase and ATP, the Ulight-peptide is phosphorylated and captured by an anti-phospho-substrate antibody, which brings the Eu chelate donor and Ulight acceptor dyes into close proximity. Upon excitation at 340 nm, the Eu chelate transfers its energy to the Ulight dye, resulting in a fluorescent light emission at 665 nm.
Titration of kinase at 1 mM ATP was achieved via the following protocol. After making serial three-fold dilutions of PASK (Invitrogen) in reaction buffer across the plate; 5 μl of kinase dilution and 5 μl substrate/ATP mix were added to the wells of the white Optiplate-384 (PerkinElmer). The contents of the plate were and incubated at RT for 1 h. The reaction was stopped by adding 5 μl of stop solution to each test well followed by mixing and incubation at RT for 10 minutes. 5 μl of detection mix (detection antibody diluted in detection buffer) was added; the contents of the plate were mixed and then incubated in the dark for 1 hour at RT. The signal was recorded at TR-FRET mode (665 nm/615 nm). The results were graphed to calculate the EC50.
Titration of ATP at the EC50 concentration of kinase to determine ATP Km, app. was performed using the following method. After making serial dilutions of ATP (Invitrogen), 5 μl of ATP dilution and 5 μl substrate/kinase mix were added to the wells of the white Optiplate-384 (PerkinElmer). The contents of the plate were and incubated at RT for 1 h. The reaction was stopped by adding 5 μl of stop solution to each test well followed by mixing and incubation at RT for 10 minutes. 5 μl of detection mix (detection antibody diluted in detection buffer) was added; the contents of the plate were mixed and then incubated in the dark for 1 hour at RT. The signal was recorded at TR-FRET mode (665 nm/615 nm). The results were graphed to calculate the EC50 as the ATP Km,app.
Compound screening was done via the following method. 10 mM stock solution of test compound in DMSO was prepared by dissolving test compound in DMSO at RT for 1 hour, and then sonicating at 100% output for 8 minutes. If compound is not soluble under this condition, it was diluted to 3 mM. Kinase reaction buffer was prepared containing 10 mM MgCl2, 50 mM HEPES, 1 mM EGTA, 0.01% TWEEN-20, 2 mM DTT. Serial dilutions of the test compounds were prepared at 4× final assay concentrations using Freedom EVO200® dispensing system as follows: 12×10^−5 M, 4×10^−5M, 1.33×10^−5M, 4.44×10^−6M, 1.48×10^−6M, 4.92×10^−7M, 1.65×10^−7M, 5.48×10^−7 M, 1.82×10^−8 M, 6.09×10^−9, 2.03×10^−9 M. Test compounds (2.5 μl at 4× the final assay concentration) was added to wells using Freedom EVO200® dispensing system. As a positive control, 2.5 μl of positive compound was added to assay wells, and 2.5 μl of DMSO to assay wells as vehicle control. Kinase solution was prepared in reaction buffer at 2× final assay concentration. Kinase solution (5 μl) was added to each well of the assay plate. The substrate and ATP solution was prepared in kinase reaction buffer at 4× final assay concentration. The kinase reaction was started by adding 2.5 μl of substrate+ATP mix solution to each well of the assay plate. The plate is mixed on a plate shaker; then covered and allowed to react for 2 hours in the dark at 25° C. without shaking. The reaction was stopped by adding 5 μl of stop solution to each test well followed by mixing and incubation at RT for 10 minutes in the dark. 5 μl of detection mix (detection antibody diluted in detection buffer) was added; the contents of the plate were mixed and then incubated in the dark for 1 hour at RT. The signal was recorded at TR-FRET mode (665 nm/615 nm).

T1 sequence (Q96RG2 999-1251 limits assumed): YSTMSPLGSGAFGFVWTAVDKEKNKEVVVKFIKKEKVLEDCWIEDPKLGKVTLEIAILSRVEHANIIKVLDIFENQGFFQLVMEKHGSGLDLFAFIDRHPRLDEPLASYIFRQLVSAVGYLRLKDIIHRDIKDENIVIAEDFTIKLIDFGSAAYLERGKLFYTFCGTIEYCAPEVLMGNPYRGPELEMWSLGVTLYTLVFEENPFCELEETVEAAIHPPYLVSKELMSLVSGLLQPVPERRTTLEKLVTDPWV

| Compound | IC50 |
| --- | --- |
| O=C(O)c1ccc2nc(-c3ccc(F)cc3)c(N3CCCc4ccccc43)nc2c1 [Example 1, 3-(1,2,3,4-Tetrahydroquinolin-1(2H)-yl)-2-(4-fluorophenyl)quinoxaline-6-carboxylic acid] | ≤ 10 µM |
| O=C(O)c1ccc2nc(-c3ccc4c(c3)OCCO4)c(N3CCCc4ccccc43)nc2c1 [Example 4, 2-(2,3-Dihydro-1,4-benzodioxin-6-yl)-3-(1,2,3,4-tetrahydroquinolin-1-yl)quinoxaline-6-carboxylic acid] | ≤ 10 µM |
| O=C(O)c1ccc2nc(-c3cc4cc(Cl)ccc4o3)c(N3CCCc4cc(F)ccc43)nc2c1 [Example 8, 2-(5-Chloro-1-benzofuran-2-yl)-3-(6-fluoro-1,2,3,4-tetrahydroquinolin-1-yl)quinoxaline-6-carboxylic acid] | ≤ 10 µM |
| COc1ccc2c(c1)CCCN2c1nc2cc(C(=O)O)ccc2nc1-c1cc2cc(Cl)ccc2o1 [Example 9, 2-(5-Chloro-1-benzofuran-2-yl)-3-(6-methoxy-1,2,3,4-tetrahydroquinolin-1-yl)quinoxaline-6-carboxylic acid] | ≤ 10 µM |
| N#Cc1ccc2c(c1)CCCN2c1nc2cc(C(=O)O)ccc2nc1-c1ccc(F)cc1 [Example 12, 3-(6-Cyano-1,2,3,4-tetrahydroquinolin-1-yl)-2-(4-fluorophenyl)quinoxaline-6-carboxylic acid] | ≤ 10 µM |
| O=C(O)c1ccc2nc(-c3ccc(F)cc3)c(N3CCCc4cc(Br)ccc43)nc2c1 [Example 13] | ≤ 10 µM |
| NC(=O)c1ccc2c(c1)CCCN2c1nc2cc(C(=O)O)ccc2nc1-c1ccc(F)cc1 [Example 14, 3-(6-Carbamoyl-1,2,3,4-tetrahydroquinolin-1-yl)-2-(4-fluorophenyl)quinoxaline-6-carboxylic acid] | ≤ 10 µM |
| CN(C)c1ccc2c(c1)CCCN2c1nc2cc(C(=O)O)ccc2nc1-c1ccc(F)cc1 [Example 17, 3-[6-(Dimethylamino)-1,2,3,4-tetrahydroquinolin-1-yl]-2-(4-fluorophenyl)quinoxaline-6-carboxylic acid] | ≤ 10 µM |
| O=C(O)c1ccc2nc(-c3ccc(F)cc3)c(N3CCCc4cc(Cl)ccc43)nc2c1 [Example 18, 3-(6-Chloro-1,2,3,4-tetrahydroquinolin-1-yl)-2-(4-fluorophenyl)quinoxaline-6-carboxylic acid] | ≤ 10 µM |
| Cc1cc2cc(-c3nc4ccc(C(=O)O)cc4nc3N3CCCc4cc(F)ccc43)ccc2[nH]1 [Example 20, 3-(6-Fluoro-1,2,3,4-tetrahydroquinolin-1-yl)-2-(2-methyl-1H-indol-5-yl)quinoxaline-6-carboxylic acid] | ≤ 10 µM |
| O=C(O)c1ccc2nc(-c3ccc4[nH]ncc4c3)c(N3CCCc4cc(F)ccc43)nc2c1 [Example 21, 3-(6-Fluoro-1,2,3,4-tetrahydroquinolin-1-yl)-2-(1H-indazol-5-yl)quinoxaline-6-carboxylic acid] | ≤ 10 µM |

More lines, now with the values ahead:

| IC50 | Compound |
| --- | --- |
| ≤ 10 µM | O=C(O)c1ccc2nc(-c3cc4ccccc4o3)c(N3CCCc4ccccc43)nc2c1 [Example 2, 2-(Benzofuran-2-yl)-3-(1,2,3,4-tetrahydroquinolin-1(2H)-yl)quinoxaline-6-carboxylic acid] |
| ≤ 10 µM | O=C(O)c1ccc2nc(-c3cc4cc(F)ccc4o3)c(N3CCCc4ccccc43)nc2c1 [Example 3, 3-(1,2,3,4-Tetrahydroquinolin-1(2H)-yl)-2-(5-fluorobenzofuran-2-yl)quinoxaline-6-carboxylic acid] |
| ≤ 10 µM | COc1ccc2c(c1)CCCN2c1nc2cc(C(=O)O)ccc2nc1-c1ccc(F)cc1 [Example 5, 2-(4-Fluorophenyl)-3-(6-methoxy-1,2,3,4-tetrahydroquinolin-1-yl)quinoxaline-6-carboxylic acid] |
| ≤ 10 µM | O=C(O)c1ccc2nc(-c3ccc(F)cc3)c(N3CCCc4cc(F)ccc43)nc2c1 [Example 6, 3-(6-Fluoro-1,2,3,4-tetrahydroquinolin-1-yl)-2-(4-fluorophenyl)quinoxaline-6-carboxylic acid] |
| ≤ 10 µM | COc1ccc2c(c1)CCCN2c1nc2cc(C(=O)O)ccc2nc1-c1cc2cc(F)ccc2o1 [Example 7, 2-(5-Fluoro-1-benzofuran-2-yl)-3-(6-methoxy-1,2,3,4-tetrahydroquinolin-1-yl)quinoxaline-6-carboxylic acid] |
| > 10 µM | O=C(O)c1ccc2[nH]c(=O)c(N3CCCc4ccccc43)nc2c1 [Example 10, 2-Oxo-3-(1,2,3,4-tetrahydroquinolin-1-yl)-1,2-dihydroquinoxaline-6-carboxylic acid] |
| ≤ 10 µM | O=C(O)c1ccc2nc(-c3ccc(F)cc3)c(N3CCCc4cc(C(=O)N5CCOCC5)ccc43)nc2c1 [Example 15, 2-(4-Fluorophenyl)-3-[6-[(morpholin-4-yl)carbonyl]-1,2,3,4-tetrahydroquinolin-1-yl]quinoxaline-6-carboxylic acid] |
| ≤ 10 µM | CN(C)S(=O)(=O)c1ccc2c(c1)CCCN2c1nc2cc(C(=O)O)ccc2nc1-c1ccc(F)cc1 [Example 16, 3-[6-(Dimethylsulfamoyl)-1,2,3,4-tetrahydroquinolin-1-yl]-2-(4-fluorophenyl)quinoxaline-6-carboxylic acid] |
| ≤ 10 µM | O=C(O)c1ccc2nc(-c3ccc(F)cc3)c(N3CCCc4c(F)cccc43)nc2c1 [Example 19] |
| ≤ 10 µM | COc1ccc2c(c1)N(c1nc3cc(C(=O)O)ccc3nc1-c1ccc(F)cc1)CCC2 [Example 22, 2-(4-Fluorophenyl)-3-(7-methoxy-1,2,3,4-tetrahydroquinolin-1-yl)quinoxaline-6-carboxylic acid] |
| ≤ 10 µM | O=C(O)c1ccc2nc(-c3ccc(F)cc3)c(N3CCCc4ccc(F)cc43)nc2c1 [Example 23, 3-(7-Fluoro-1,2,3,4-tetrahydroquinolin-1-yl)-2-(4-fluorophenyl)quinoxaline-6-carboxylic acid] |
| ≤ 10 µM | O=C(O)c1ccc2nc(-c3ccc(F)cc3)c(N3CCCc4cc5c(cc43)OCO5)nc2c1 [Example 24, 3-[2H,5H,6H,7H,8H-[1,3]Dioxolo[4,5-g]quinolin-5-yl]-2-(4-fluorophenyl)quinoxaline-6-carboxylic acid] |
